According to PubChem BioAssay (NCI):
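1) Cells in 96-well plates. 2) Compound, 48 h, 5 concentrations. 3) Linear interpolation between surrounding doses. 4) Unreached endpoint = highest concentration. The concentration for full growth arrest is given as TGI.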

Columns and labels:
Test in all cases: NCI-60 cell line screen, 48 h
UACC-257 melanoma = tested on: UACC-257 melanoma
EKVX NSCLC = tested on: EKVX NSCLC
SNB-75 CNS = tested on: SNB-75 CNS
IGROV1 ovarian = tested on: IGROV1 ovarian
A498 renal = tested on: A498 renal
SK-MEL-5 melanoma = tested on: SK-MEL-5 melanoma
NCI-H23 lung = tested on: NCI-H23 lung
NCI/ADR-RES ovarian = tested on: NCI/ADR-RES ovarian
HCT-15 colon = tested on: HCT-15 colon
SR leukemia = tested on: SR leukemia
HS 578T breast = tested on: HS 578T breast
MDA-MB-231 breast = tested on: MDA-MB-231 breast
T-47D breast = tested on: T-47D breast
MDA-MB-435 = tested on: MDA-MB-435
HCT-116 colon = tested on: HCT-116 colon
A549 NSCLC = tested on: A549 NSCLC
CAKI-1 renal = tested on: CAKI-1 renal
U251 CNS = tested on: U251 CNS
NCI-H522 lung = tested on: NCI-H522 lung
TK-10 renal = tested on: TK-10 renal
NCI-H460 lung = tested on: NCI-H460 lung
CCRF-CEM leukemia = tested on: CCRF-CEM leukemia
SN12C renal = tested on: SN12C renal
M14 melanoma = tested on: M14 melanoma
SNB-19 CNS = tested on: SNB-19 CNS
MCF7 breast = tested on: MCF7 breast
SK-OV-3 ovarian = tested on: SK-OV-3 ovarian
BT-549 breast = tested on: BT-549 breast
HOP-62 NSCLC = tested on: HOP-62 NSCLC
RPMI-8226 leukemia = tested on: RPMI-8226 leukemia
HOP-92 NSCLC = tested on: HOP-92 NSCLC
K-562 leukemia = tested on: K-562 leukemia
MALME-3M melanoma = tested on: MALME-3M melanoma
KM12 colon = tested on: KM12 colon
SF-539 CNS = tested on: SF-539 CNS
SF-268 CNS = tested on: SF-268 CNS
SK-MEL-28 melanoma = tested on: SK-MEL-28 melanoma
SF-295 CNS = tested on: SF-295 CNS
COLO 205 colon = tested on: COLO 205 colon
DU-145 prostate = tested on: DU-145 prostate
OVCAR-8 ovarian = tested on: OVCAR-8 ovarian
HCC-2998 colon = tested on: HCC-2998 colon
UO-31 renal = tested on: UO-31 renal
RXF 393 renal = tested on: RXF 393 renal
MDA-N = tested on: MDA-N
SK-MEL-2 melanoma = tested on: SK-MEL-2 melanoma
OVCAR-5 ovarian = tested on: OVCAR-5 ovarian
SW-620 colon = tested on: SW-620 colon
OVCAR-4 ovarian = tested on: OVCAR-4 ovarian
OVCAR-3 ovarian = tested on: OVCAR-3 ovarian
UACC-62 melanoma = tested on: UACC-62 melanoma
MOLT-4 leukemia = tested on: MOLT-4 leukemia
786-0 renal = tested on: 786-0 renal
ACHN renal = tested on: ACHN renal
LOX IMVI melanoma = tested on: LOX IMVI melanoma
PC-3 prostate = tested on: PC-3 prostate
NCI-H226 lung = tested on: NCI-H226 lung
HL-60(TB) leukemia = tested on: HL-60(TB) leukemia
HT29 colon = tested on: HT29 colon

Measured: TGI

CC(=O)Oc1ccc(/C=C/C(=O)O[C@@H](C)[C@H](C)OC(=O)/C=C/c2ccc(OC(C)=O)c(OC(C)=O)c2)cc1OC(C)=O
56.3 µM: HOP-62 NSCLC
35.3 µM: SW-620 colon
28.1 µM: NCI-H522 lung
93.9 µM: A498 renal
77.2 µM: SK-OV-3 ovarian
39.1 µM: RPMI-8226 leukemia
33.8 µM: UACC-62 melanoma
61.2 µM: T-47D breast
58.2 µM: HOP-92 NSCLC
44.6 µM: RXF 393 renal
58.4 µM: M14 melanoma
29 µM: LOX IMVI melanoma
78.8 µM: KM12 colon
65.1 µM: UACC-257 melanoma
89.2 µM: BT-549 breast
42.3 µM: CCRF-CEM leukemia
89.4 µM: MDA-N
51.6 µM: OVCAR-3 ovarian
77.7 µM: SK-MEL-28 melanoma
63.5 µM: MALME-3M melanoma
53.6 µM: OVCAR-8 ovarian
33.1 µM: HCT-15 colon
58.8 µM: OVCAR-5 ovarian
29.2 µM: SK-MEL-5 melanoma
50.4 µM: HCC-2998 colon
25.8 µM: NCI-H23 lung
39.3 µM: SF-295 CNS
79.7 µM: EKVX NSCLC
not listed: NCI-H226 lung | HL-60(TB) leukemia | HT29 colon
> 100 µM: all other assays above

Cc1ccc(N=Nc2c(C)nn(C(=O)CC(=O)Nc3ccccc3)c2C)cc1C
not listed: UACC-257 melanoma | SNB-19 CNS | K-562 leukemia
> 100 µM: all other assays above
